{"source": "the supplement of paper PMC11208160", "data": [{"experiment": "recombinant barcode read abundance after kanamycin selection (control-corrected) (log10(CPM+1)); higher = more efficient recombination; sequences stand for … in AGTGCAGAGAAAATCGGCCAGTTTTCTCTGCCTGCAGTCCGCATGCCGT…AGATTTATGCAGCGGACTGCCTTTCTCCCAAAGTGATAAACCGGACAGTATCATGGACCGGTTTTCCCGGTAATCCGTATTTGCAAGGTTGGTTTCACT; site = the 11-nt target", "summary_of_the_method": "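Each value is log10(CPM+1). It describes recombination efficiency, taken as averaged, control-corrected counts per million of barcodes at recombinant junctions. The pooled E. coli library paired targets with IS621 bridge RNA target-binding loops, was co-electroporated with a donor plasmid, and was plated twice on chloramphenicol/ampicillin LB agar (control) and twice on chloramphenicol/ampicillin/kanamycin containing 0.1 mM IPTG.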", "values": [{"sequence": "CGTCTACCTTGGGTTCTAACCTGTTGCCT (site CGTCTACCTAG)", "recombinant barcode read abundance (log10)": 0.333}, {"sequence": "CGTCTAGCTTGGGTTCTAACCTGTTGCCA (site CGTCTAGCTTG)", "recombinant barcode read abundance (log10)": 0.0938}, {"sequence": "CGTCTAGCTTGGGTTCTAACCTGTTGCCA (site CGTGGAGCTTG)", "recombinant barcode read abundance (log10)": 0.0343}, {"sequence": "CGTCTGCCTTGGGTTCTAACCTGTTGCCT (site AGTCTGCCTAG)", "recombinant barcode read abundance (log10)": 0.0222}, {"sequence": "CGTCTGCCTTGGGTTCTAACCTGTTGCCT (site CGTCTGCCTAG)", "recombinant barcode read abundance (log10)": 0.0327}, {"sequence": "CGTCTGCCTTGGGTTCTAACCTGTTGCCT (site GGTCTGCCTAG)", "recombinant barcode read abundance (log10)": 0.0804}, {"sequence": "CGTCTGCCTTGGGTTCTAACCTGTTGCCT (site TGTCTGCCTAG)", "recombinant barcode read abundance (log10)": 0.193}, {"sequence": "CGTGACCCTTGGGTTCTAACCTGTTGCGG (site CGTGACCCTCC)", "recombinant barcode read abundance (log10)": 2.34}, {"sequence": "CGTGACCCTTGGGTTCTAACCTGTTGCGG (site GTGAGAACTTG)", "recombinant barcode read abundance (log10)": 0.072}, {"sequence": "CGTGCAGCTTGGGTTCTAACCTGTTGCCT (site CGAGCAGCTAG)", "recombinant barcode read abundance (log10)": 0.508}, {"sequence": "CGTGCAGCTTGGGTTCTAACCTGTTGCCT (site CGCGCAGCTAG)", "recombinant barcode read abundance (log10)": 0.137}, {"sequence": "CGTGCAGCTTGGGTTCTAACCTGTTGCCT (site CGGGCAGCTAG)", "recombinant barcode read abundance (log10)": 0.0626}, {"sequence": "CGTGCAGCTTGGGTTCTAACCTGTTGCCT (site CGTGCAGCTAG)", "recombinant barcode read abundance (log10)": 0.323}, {"sequence": "CGTGCGCCTTGGGTTCTAACCTGTTGCCT (site AAACTAGCTCC)", "recombinant barcode read abundance (log10)": 0.0967}, {"sequence": "CGTGCGCCTTGGGTTCTAACCTGTTGCCT (site CGTGCGCCTAG)", "recombinant barcode read abundance (log10)": 0.174}, {"sequence": "CGTGGTCCTTGGGTTCTAACCTGTTGCGT (site CGTGGTCCTAA)", "recombinant barcode read abundance (log10)": 0.615}, {"sequence": "CGTGGTCCTTGGGTTCTAACCTGTTGCGT (site CGTGGTCCTAC)", "recombinant barcode read abundance (log10)": 2.26}, {"sequence": "CGTGGTCCTTGGGTTCTAACCTGTTGCGT (site CGTGGTCCTAG)", "recombinant barcode read abundance (log10)": 0.224}, {"sequence": "CGTGGTCCTTGGGTTCTAACCTGTTGCGT (site CGTGGTCCTAT)", "recombinant barcode read abundance (log10)": 1.25}, {"sequence": "CGTGGTCCTTGGGTTCTAACCTGTTGCTT (site CGTGGTCCTAA)", "recombinant barcode read abundance (log10)": 0.919}, {"sequence": "CGTGGTCCTTGGGTTCTAACCTGTTGCTT (site CGTGGTCCTAC)", "recombinant barcode read abundance (log10)": 0.409}, {"sequence": "CGTGGTCCTTGGGTTCTAACCTGTTGCTT (site CGTGGTCCTAG)", "recombinant barcode read abundance (log10)": 0.342}, {"sequence": "CGTGGTCCTTGGGTTCTAACCTGTTGCTT (site CGTGGTCCTAT)", "recombinant barcode read abundance (log10)": 0.426}, {"sequence": "CGTTCCACTTGGGTTCTAACCTGTTGCCT (site CGTTCAACTAG)", "recombinant barcode read abundance (log10)": 0.0139}, {"sequence": "CGTTCCACTTGGGTTCTAACCTGTTGCCT (site CGTTCCACTAG)", "recombinant barcode read abundance (log10)": 0.0687}, {"sequence": "CGTTCCACTTGGGTTCTAACCTGTTGCCT (site CGTTCGACTAG)", "recombinant barcode read abundance (log10)": 0.279}, {"sequence": "CGTTCCACTTGGGTTCTAACCTGTTGCCT (site CGTTCTACTAG)", "recombinant barcode read abundance (log10)": 0}, {"sequence": "CTAAACCCTTGGGTTCTAACCTGTTGCGT (site CTAAACCCTAC)", "recombinant barcode read abundance (log10)": 2.85}, {"sequence": "CTAAACCCTTGGGTTCTAACCTGTTGCGT (site CTACACCCTTC)", "recombinant barcode read abundance (log10)": 0.0729}, {"sequence": "CTAAATCCTTGGGTTCTAACCTGTTGCCT (site ATAAATCCTAG)", "recombinant barcode read abundance (log10)": 0.111}, {"sequence": "CTAAATCCTTGGGTTCTAACCTGTTGCCT (site CTAAATCCTAG)", "recombinant barcode read abundance (log10)": 0.303}, {"sequence": "CTAAATCCTTGGGTTCTAACCTGTTGCCT (site GTAAATCCTAG)", "recombinant barcode read abundance (log10)": 0.0932}, {"sequence": "CTAAATCCTTGGGTTCTAACCTGTTGCCT (site TTAAATCCTAG)", "recombinant barcode read abundance (log10)": 0.0182}, {"sequence": "CTAACCGCTTGGGTTCTAACCTGTTGCCT (site CAAACCGCTAG)", "recombinant barcode read abundance (log10)": 0.471}, {"sequence": "CTAACCGCTTGGGTTCTAACCTGTTGCCT (site CCAACCGCTAG)", "recombinant barcode read abundance (log10)": 0.266}, {"sequence": "CTAACCGCTTGGGTTCTAACCTGTTGCCT (site CGAACCGCTAG)", "recombinant barcode read abundance (log10)": 0.0568}, {"sequence": "CTAACCGCTTGGGTTCTAACCTGTTGCCT (site CTAACCGCTAG)", "recombinant barcode read abundance (log10)": 1.67}, {"sequence": "CTAACCTCTTGGGTTCTAACCTGTTGCTT (site CTAACCTCTAA)", "recombinant barcode read abundance (log10)": 0.505}, {"sequence": "CTAACCTCTTGGGTTCTAACCTGTTGCTT (site CTAACCTCTCA)", "recombinant barcode read abundance (log10)": 0.149}, {"sequence": "CTAACCTCTTGGGTTCTAACCTGTTGCTT (site CTAACCTCTGA)", "recombinant barcode read abundance (log10)": 0.178}, {"sequence": "CTAACCTCTTGGGTTCTAACCTGTTGCTT (site CTAACCTCTTA)", "recombinant barcode read abundance (log10)": 0}, {"sequence": "CTAAGAACTTGGGTTCTAACCTGTTGCAT (site CTAAGAACTAA)", "recombinant barcode read abundance (log10)": 0.15}, {"sequence": "CTAAGAACTTGGGTTCTAACCTGTTGCAT (site CTAAGAACTAC)", "recombinant barcode read abundance (log10)": 0.0166}, {"sequence": "CTAAGAACTTGGGTTCTAACCTGTTGCAT (site CTAAGAACTAG)", "recombinant barcode read abundance (log10)": 0.188}, {"sequence": "CTAAGAACTTGGGTTCTAACCTGTTGCAT (site CTAAGAACTAT)", "recombinant barcode read abundance (log10)": 1.1}, {"sequence": "CTAAGAGCTTGGGTTCTAACCTGTTGCCA (site CTAAGAGCTTG)", "recombinant barcode read abundance (log10)": 0.483}, {"sequence": "CTAAGAGCTTGGGTTCTAACCTGTTGCCA (site CTAAGCGCTTG)", "recombinant barcode read abundance (log10)": 0.109}, {"sequence": "CTAAGAGCTTGGGTTCTAACCTGTTGCCA (site CTAAGGGCTTG)", "recombinant barcode read abundance (log10)": 0.0357}, {"sequence": "CTAAGAGCTTGGGTTCTAACCTGTTGCCA (site CTAAGTGCTTG)", "recombinant barcode read abundance (log10)": 0.116}, {"sequence": "CTAAGCACTTGGGTTCTAACCTGTTGCCG (site CTAAATACTCG)", "recombinant barcode read abundance (log10)": 0.849}, {"sequence": "CTAAGCACTTGGGTTCTAACCTGTTGCCG (site CTAAGCACTCG)", "recombinant barcode read abundance (log10)": 0.671}, {"sequence": "CTAAGGACTTGGGTTCTAACCTGTTGCTT (site CTAAGGACTAA)", "recombinant barcode read abundance (log10)": 0.0753}, {"sequence": "CTAAGGACTTGGGTTCTAACCTGTTGCTT (site CTAAGGGCTCA)", "recombinant barcode read abundance (log10)": 0.124}, {"sequence": "CTAAGGGCTTGGGTTCTAACCTGTTGCCA (site CTAAGAGCTTG)", "recombinant barcode read abundance (log10)": 0.122}, {"sequence": "CTAAGGGCTTGGGTTCTAACCTGTTGCCA (site CTAAGCGCTTG)", "recombinant barcode read abundance (log10)": 0.0306}, {"sequence": "CTAAGGGCTTGGGTTCTAACCTGTTGCCA (site CTAAGGGCTTG)", "recombinant barcode read abundance (log10)": 0.591}, {"sequence": "CTAAGGGCTTGGGTTCTAACCTGTTGCCA (site CTAAGTGCTTG)", "recombinant barcode read abundance (log10)": 0.233}, {"sequence": "CTAAGGGCTTGGGTTCTAACCTGTTGCGG (site CTAAGGGCTCC)", "recombinant barcode read abundance (log10)": 1.94}, {"sequence": "CTAAGGGCTTGGGTTCTAACCTGTTGCGG (site CTTAGGGCTCC)", "recombinant barcode read abundance (log10)": 0.303}, {"sequence": "CTAAGTTCTTGGGTTCTAACCTGTTGCGT (site CTAAGTTCTAC)", "recombinant barcode read abundance (log10)": 1.77}, {"sequence": "CTAAGTTCTTGGGTTCTAACCTGTTGCGT (site CTACGTACTAC)", "recombinant barcode read abundance (log10)": 0.0986}, {"sequence": "CTAATAGCTTGGGTTCTAACCTGTTGCCT (site CTAATAGCTAG)", "recombinant barcode read abundance (log10)": 0.901}, {"sequence": "CTAATAGCTTGGGTTCTAACCTGTTGCCT (site CTAATGGCTAG)", "recombinant barcode read abundance (log10)": 0.0554}, {"sequence": "CTAATAGCTTGGGTTCTAACCTGTTGCTA (site CTAATAGCTTA)", "recombinant barcode read abundance (log10)": 0.162}, {"sequence": "CTAATAGCTTGGGTTCTAACCTGTTGCTA (site CTAATATCTTA)", "recombinant barcode read abundance (log10)": 0.438}, {"sequence": "CTAATATCTTGGGTTCTAACCTGTTGCTA (site CTAATAGCTTA)", "recombinant barcode read abundance (log10)": 0.0341}]}]}
